The source of these data is patent publication US6635620B1, “Hydroxyproline derivatives” (Japan Bioproducts Ind. Co., Ltd., priority 1998, dated 2003).

This experiment concerns BHK-21 cells. In words: BHK-21 cell proliferation (cell growth) activity. Type of experiment: cell-based, hamster. Conditions: 3 days culture, compared with medium control. As to the method:
Cell growth activities of the samples were measured as BHK (baby hamster kidney) −21 cell proliferation activity, following the known method (Planta Med., 62,115-118,1996, and others). In detail, BHK-21 cells (1×10^4) were cultured in Eagle's minimum essential medium supplemented with 5% fetal bovine serum and 2 mM glutamine, for 3 days at 37° C. with different concentration (μg/ml) of test samples in 5% CO2/air at pH 7.2. The cells were treated with a mixture of trypsin and 0.02% EDTA solution to detach the cells from each well. The cells were harvested and the numbers of total viable cells were counted. The viability of the cells was determined by the method of dye-exclusion test using 0.4% trypan blue solution. The cell growth activity (%) was determined by comparing with the control cells (medium control).

As to `O=C1NC(CO)C(=O)N2C[C@H](O)CC12` (stereo partly shown) [Compound 2, 3′-Hydroxymethyl-4-hydroxypyrrolido [1,2-f] 2′, 5′-piperazinedione], the cell growth activity result is recorded as “showed the cell growth activity”.
